The source of these data is patent EP2140864A2 (H. Lundbeck A/S, priority 2001, dated 2002).

The term Ki denotes a measure of affinity in units of concentration, obtained from inhibition or displacement.

The target of the experiment is T1, human GAL3 receptor (Homo sapiens, UniProt O60755).
T1 construct: expressed in transfected cells
T1 sequence (O60755 1-368): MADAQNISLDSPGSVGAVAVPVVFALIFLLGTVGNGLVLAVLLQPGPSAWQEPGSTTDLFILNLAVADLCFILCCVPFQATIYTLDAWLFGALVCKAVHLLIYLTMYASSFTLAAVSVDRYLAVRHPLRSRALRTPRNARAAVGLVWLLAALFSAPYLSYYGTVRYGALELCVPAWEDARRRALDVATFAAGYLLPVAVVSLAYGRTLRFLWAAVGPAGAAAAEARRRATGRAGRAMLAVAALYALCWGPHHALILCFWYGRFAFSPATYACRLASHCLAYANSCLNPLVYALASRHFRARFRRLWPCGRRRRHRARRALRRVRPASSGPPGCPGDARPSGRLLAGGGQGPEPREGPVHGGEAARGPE
Description: Radioligand binding at cloned human GAL3 receptor. To be noted: pyrimidines, cloned human receptor; read-out: Ki GalR3. As for the experimental part: The present invention provides for a method of determining the binding affinity of a GAL3 antagonist, wherein the GAL3 antagonist is dissolved in a "suitable solvent". A "suitable solvent" means one which permits the measurement of binding affinity of the GAL3 antagonist to the human GAL3 receptor at concentrations less than 1 µM, preferably less than 100 nM. Examples of solvents include, but are not limited to, DMSO, ethanol, N,N-dimethylacetamide, or water. For indolones, the preferred solvent is 3% DMSO (final concentration in the assay). For pyrimidines, the preferred solvent is 1% ethanol/0.09% polypuronic acid F-127 (final concentration in the assay). For any other type of compounds, the preferred solvent is the solvent which permits the measurement of binding affinity of a GAL3 antagonist at the lowest concentration. Once a suitable solvent is ascertained for the binding assay of the human GAL3 receptor, the same solvent is used in assays to determine the binding affinity at the GAL1 receptor, the serotonin transporter, the norepinephrine transporter, and the dopamine transporter. A solvent of 0.4% DMSO is used in the central monoamine oxidase enzyme assay.
The binding properties of the pyrimidines of the present invention were evaluated at the cloned human galanin receptors, GAL1, GAL2, and GAL3, using protocols described herein.
The binding properties of the indolones of the present invention were evaluated at the cloned human galanin receptors, GAL1, GAL2, and GAL3, using protocols described herein.
LM(tk-) cells were stably transfected with the human GAL1 or GAL3 receptor. CHO cells were stably transfected with the human GAL2 receptor.
cDNAs for the human and rat GAL1, and human and rat GAL3 receptors were transfected with a G-418 resistant gene into the mouse fibroblast LM(tk-) cell line by a calcium phosphate transfection method (Cullen, 1987). Stably transfected cells were selected with G-418. Human and rat GAL2 receptors were similarly transfected into CHO cells.
Membranes were harvested from stably transfected LM(tk-) cells. Adherent cells were washed twice in ice-cold phosphate buffered saline (138 mM NaCl, 8.1 mM Na2HPO4, 2.5 mM KCl, 1.2 mM KH2PO4, 0.9 mM CaCl2, 0.5 mM MgCl2, pH 7.4) and lysed by sonication in ice-cold sonication buffer (20 mM Tris-HCl, 5 mM EDTA, pH 7.7). Large particles and debris were cleared by low speed centrifugation (200 x g, 5 min, 4°C). Membranes were collected from the supernatant fraction by centrifugation (32,000 x g, 18 min, 4°C), washed with ice-cold hypotonic buffer, and collected again by centrifugation (32,000 x g, 18 min, 4°C). The final membrane pellet was resuspended by sonication into a small volume of ice-cold binding buffer (-1 ml for every 5 plates: 10 mM NaCl, 20 mM HEPES, 0.22 mM KH2PO4, 1.26 mM CaCl2, 0.81 mM MgSO4, pH 7.4). Protein concentration was measured by the Bradford method (Bradford, 1976) using Bio-Rad Reagent, with bovine serum albumin as a standard. Membranes were held on ice for up to one hour and used fresh, or flash frozen and stored in liquid nitrogen. Membranes were prepared similarly from CHO cells.
Galanin Recentors: Binding assays were performed according to the following published methods: human GAL3 (PCT International Publication No. WO 98/15570), human GAL1 (PCT International Publication No. WO 95/2260), human GAL2 (PCT International Publication No. WO 97/26853).
Binding data were analyzed using nonlinear regression and statistical techniques available in the GraphPAD Prism package (San Diego, CA). Enzymatic assay data were derived from a standard curve of reference compound data.
In the case of `CCOc1cccc(Nc2cc(N(C)C)nc(N3CCN(c4ccccn4)CC3)n2)c1` [Example 135], the Ki turned out to be 100 nM.
Turning to `CN(C)c1cc(Nc2ccc(C(F)(F)F)cc2Cl)nc(N2CCN(c3ccccn3)CC2)n1` [Example 136], the Ki was found to be 25 nM.
Regarding `CN(C)c1cc(NC2C3CC4CC(C3)CC2C4)nc(N2CCN(Cc3ccccc3)CC2)n1` (stereo not shown) [Example 137], the Ki was 124 nM.
Take `CN(C)c1cc(NC23CC4CC(CC(C4)C2)C3)nc(N2CCN(Cc3ccccc3)CC2)n1` [Example 138]: the Ki was determined as 52 nM.
In the case of `C[C@H]1[C@H](Nc2cc(N(C)C)nc(N3CCN(Cc4ccccc4)CC3)n2)C[C@@H]2C[C@@H]1C2(C)C` [Example 139], the Ki was 47 nM.
Take `Cc1ccc(Nc2cc(N(C)C)nc(N3CCN(c4ccc(Br)cn4)CC3)n2)cc1` [Example 140]: the Ki was found to be 169 nM.
On to `Cc1ccc(Nc2cc(N(C)C)nc(N3CCN(c4ccc(C(N)=O)cn4)CC3)n2)cc1` [Example 141, 6-{4-[4-(DIMETHYLAMINO)-6-(4-TOLUDINO)-2-PYRIMIDINYL] -1-PIPERAZINYL}NICOTINAMIDE], for which the Ki was found to be 509 nM.
Consider `COc1cccc(CN2CCN(c3nc(Nc4ccc(C)cc4)cc(N(C)C)n3)CC2)c1` [Example 142], for which the Ki came to 28 nM.
Take `COc1cccc(Nc2cc(N(C)C)nc(N3CCN(c4ccc(Br)cn4)CC3)n2)c1` [Example 143]: the Ki turned out to be 144 nM.
`COc1cccc(Nc2cc(N(C)C)nc(N3CCN(Cc4ccccn4)CC3)n2)c1` [Example 144]: the Ki came out at 529 nM.
Turning to `COc1cccc(Nc2cc(N(C)C)nc(N3CCN(CC4CCCCC4)CC3)n2)c1` [Example 145], the Ki is 155 nM.
Regarding `COc1cccc(Nc2cc(N(C)C)nc(N3CCN(Cc4ccsc4)CC3)n2)c1` [Example 146], the Ki was 72 nM.
Next, `COc1cccc(Nc2cc(N(C)C)nc(N3CCN(Cc4ccncc4)CC3)n2)c1` [Example 147]: 640 nM; `COc1cccc(CN2CCN(c3nc(Nc4cccc(OC)c4)cc(N(C)C)n3)CC2)c1` [Example 148]: 276 nM.
With `COc1cccc(CCNc2nc(Nc3ccc(C)cc3)cc(N(C)C)n2)c1` [Example 149], the Ki stood at 138 nM.
For `COc1ccccc1CCNc1nc(Nc2ccc(C)cc2)cc(N(C)C)n1` [Example 150], the Ki came out at 180 nM.
As for `CN(C)c1cc(NC2CCC(OCc3ccccc3)CC2)nc(N2CCN(Cc3ccccc3)CC2)n1` (stereo not shown) [Example 152], the Ki was determined as 172 nM.
`Cc1ccc(Nc2cc(N(C)C)nc(N3CCN(CC4CCCO4)CC3)n2)cc1` (stereo not shown) [Example 154]: the Ki was determined as 441 nM.
On to `CN(C)c1cc(Nc2cccc(O)c2)nc(N2CCN(Cc3ccccc3)CC2)n1` [Example 155], for which the Ki was 316 nM.
Take `CN(C)c1cc(Nc2ccc(F)cc2)nc(N2CCN(Cc3ccccc3)CC2)n1` [Example 156]: the Ki was 61 nM.
In the case of `CC1CCC(Nc2cc(N(C)C)nc(N3CCN(Cc4ccccc4)CC3)n2)CC1` (stereo not shown) [Example 157] it was 273 nM; in that of `CN(C)c1ccc(Nc2cc(N(C)C)nc(N3CCN(Cc4ccccc4)CC3)n2)cc1` [Example 158], 941 nM.
As for `Cc1ccc(Nc2cc(N(C)C)nc(N3CCN(CCc4ccccc4)CC3)n2)cc1` [Example 159], the Ki was determined as 180 nM.
`CN(C)c1cc(Nc2cccc(Cl)c2)nc(N2CCN(Cc3ccccc3)CC2)n1` [Example 160]: the Ki was determined as 26 nM.
Take `Cc1ccc(Nc2cc(N(C)C)nc(N(C)CCc3ccccn3)n2)cc1` [Example 161]: the Ki turned out to be 114 nM.
For the compound `Cc1ccc(Nc2cc(N(C)C)nc(NCCCc3ccccc3)n2)cc1` [Example 162], the Ki stood at 42 nM.
In the case of `COc1cccc(Nc2cc(N(C)C)nc(N3CCN(C4CCCCC4)CC3)n2)c1` [Example 163] it was 500 nM.
Take `CN(C)c1cc(Nc2cccc(F)c2)nc(N2CCN(Cc3ccccc3)CC2)n1` [Example 164]: the Ki was 60 nM.
With `COc1cccc(Nc2cc(N(C)C)nc(N3CCN(Cc4cccs4)CC3)n2)c1` [Example 165], the Ki came to 139 nM.
With `COc1cccc(Nc2cc(N(C)C)nc(N3CCN(Cc4ccccc4OC)CC3)n2)c1` [Example 166], the Ki came to 263 nM.
On to `CN(C)c1cc(N[C@H]2CC3CC[C@]2(C)C3(C)C)nc(N2CCN(Cc3ccccc3)CC2)n1` [Example 167], for which the Ki is 50 nM.
Regarding `CN(C)c1cc(NC2C3CC4CC(C3)CC2C4)nc(N2CCN(Cc3ccccc3)CC2)n1` (stereo not shown) [Example 168], the Ki stood at 50 nM.
`CN(C)c1cc(NC2CCC(C(C)(C)C)CC2)nc(N2CCN(Cc3ccccc3)CC2)n1` (stereo not shown) [Example 169]: the Ki was determined as 77 nM.
For `CN(C)c1cc(NC2CCCCCCC2)nc(N2CCN(Cc3ccccc3)CC2)n1` [Example 170], the Ki was found to be 91 nM.
In the case of `CN(C)c1cc(Nc2ccc(Cl)cc2)nc(N2CCN(Cc3ccccc3)CC2)n1` [Example 171] it was 25 nM; in that of `Cc1ccc(Nc2cc(N(C)C)nc(N3CCN(Cc4ccccc4)CC3)n2)cc1Cl` [Example 172], 20 nM.
Next, `CN(C)c1cc(NC2CCc3ccccc3C2)nc(N2CCN(Cc3ccccc3)CC2)n1` (stereo not shown) [Example 173]: 117 nM.
Next, `Cc1ccc(Nc2cc(N(C)C)nc(N3CCN(Cc4cccs4)CC3)n2)cc1` [Example 174]: 325 nM.
For `COc1ccccc1CN1CCN(c2nc(Nc3ccc(C)cc3)cc(N(C)C)n2)CC1` [Example 175], the Ki was 56 nM.
With `Cc1ccc(Nc2cc(N(C)C)nc(NCCNc3ccccc3)n2)cc1` [Example 176], the Ki stood at 608 nM.
With `COc1cccc(Nc2cc(N(C)C)nc(N(C)CCc3ccccn3)n2)c1` [Example 177], the Ki came to 142 nM.
In the case of `CN(C)c1cc(Nc2ccc(C3CCCCC3)cc2)nc(N2CCN(c3cnccn3)CC2)n1` [Example 178], the Ki amounted to 26 nM.
With `CN(C)c1cc(Nc2cccc(OCc3ccccc3)c2)nc(N2CCN(c3cnccn3)CC2)n1` [Example 179], the Ki worked out at 15 nM.
Regarding `CN(C)c1cc(Nc2ccc3c(c2)CCC3)nc(N2CCN(c3cnccn3)CC2)n1` [Example 180], the Ki turned out to be 151 nM.
As to `Cc1ccc(Nc2cc(N(C)C)nc(N3CCN(c4cnccn4)CC3)n2)cc1` [Example 181], the Ki stood at 750 nM.
Consider `Cc1ccc(Nc2cc(N(C)C)nc(N3CCN(c4cnccn4)CC3)n2)cc1C` [Example 183], for which the Ki is 66 nM.
Consider `Cc1ccc(Nc2cc(N3CCC(=O)CC3)nc(N3CCN(Cc4ccccc4)CC3)n2)cc1` [Example 184], for which the Ki was found to be 163 nM.
As for `CCCc1ccccc1Nc1cc(N(C)C)nc(N2CCN(c3ccccn3)CC2)n1` [Example 185, N^4,N^4-dimethyl-N^6-(2-propylphenyl)-2-[4-(2-pyridinyl)-1-piperazinyl]-4,6-pyrimidinediamine], the Ki was found to be 365 nM.
Consider `CN(C)c1cc(Nc2ccccc2Cc2ccccc2)nc(N2CCN(c3ccccn3)CC2)n1` [Example 186], for which the Ki was 69 nM.
Regarding `CCCCCCc1ccc(Nc2cc(N(C)C)nc(N3CCN(c4ccccn4)CC3)n2)cc1` [Example 187], the Ki came to 19 nM.
In the case of `CN(C)c1cc(Nc2ccc(Cc3ccccc3)cc2)nc(N2CCN(c3ccccn3)CC2)n1` [Example 188] it was 27 nM; in that of `CCCCCCCc1ccc(Nc2cc(N(C)C)nc(N3CCN(c4ccccn4)CC3)n2)cc1` [Example 189], 26 nM.
